Reference: PubChem BioAssay AID256 (DTP/NCI, 2004)
Several values for one entry are separate records, joined by “and”; a condition that tells them apart may be missing. Equal values may be shown once. Toxic doses and inconclusive results are not listed.

Test system: CD2F1 mice, L1210 leukemia ip, survival T/C
Assay: NCI In Vivo Anticancer Drug Screen. Data for tumor model L1210 Leukemia (intraperitoneal) in CD2F1 (CDF1) mice
Conditions: higher = longer survival
Summary of the method: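 Activity against a transplanted murine tumor was judged by comparing the compound group with a vehicle group. The outcome in the treated animals was divided by that in the controls.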

[1] = endpoint: mean survival time, dose: 100.0 mg/kg/injection, schedule: Q01DX001 (ip), vehicle: saline with Tween-80
[2] = endpoint: mean survival time, dose: 200.0 mg/kg/injection, schedule: Q01DX001 (ip), vehicle: saline with Tween-80
[3] = endpoint: mean survival time, dose: 100.0 mg/kg/injection, schedule: Q01DX009 (ip), vehicle: saline with Tween-80
[4] = endpoint: mean survival time, dose: 200.0 mg/kg/injection, schedule: Q01DX009 (ip), vehicle: saline with Tween-80
[5] = endpoint: mean survival time, dose: 25.0 mg/kg/injection, schedule: Q04DX003 (ip), vehicle: saline with Tween-80
[6] = endpoint: mean survival time, dose: 50.0 mg/kg/injection, schedule: Q04DX003 (ip), vehicle: saline with Tween-80
[7] = endpoint: mean survival time, dose: 100.0 mg/kg/injection, schedule: Q04DX003 (ip), vehicle: saline with Tween-80
[8] = endpoint: mean survival time, dose: 400.0 mg/kg/injection, schedule: Q01DX001 (ip), vehicle: saline with Tween-80
[9] = endpoint: mean survival time, dose: 200.0 mg/kg/injection, schedule: Q04DX003 (ip), vehicle: saline with Tween-80
[10] = endpoint: mean survival time, dose: 400.0 mg/kg/injection, schedule: Q04DX003 (ip), vehicle: saline with Tween-80
[11] = endpoint: mean survival time, dose: 75.0 mg/kg/injection, schedule: Q01DX001 (ip), vehicle: saline
[12] = endpoint: mean survival time, dose: 150.0 mg/kg/injection, schedule: Q01DX001 (ip), vehicle: saline
[13] = endpoint: mean survival time, dose: 300.0 mg/kg/injection, schedule: Q01DX001 (ip), vehicle: saline
[14] = endpoint: mean survival time, dose: 100.0 mg/kg/injection, schedule: Q04DX002 (ip), vehicle: saline with Tween-80
[15] = endpoint: mean survival time, dose: 200.0 mg/kg/injection, schedule: Q04DX002 (ip), vehicle: saline with Tween-80

CCOc1ccc(-n2c(O)c(N=Nc3ccccc3OC)c(=O)n(-c3ccccc3)c2=S)cc1
T/C [1]: 93 % of control | T/C [2]: 91 % of control

COc1ccc(OC)c(NC(=O)NNC(=O)c2ccc(Cl)cc2Cl)c1
T/C [3]: 91 % of control | T/C [4]: 90 % of control | T/C (endpoint: mean survival time, dose: 400.0 mg/kg/injection, schedule: Q01DX009 (ip), vehicle: saline with Tween-80): 91 % of control

CC(=O)Nc1ccc(OC(C)=O)cc1
T/C [5]: 97 % of control | T/C [6]: 97 % of control | T/C [7]: 101 % of control

CCOc1ccc(/C=N/NC(=O)c2ccccc2NC(=O)C2CC2)cc1OC
T/C [1]: 98 % of control | T/C [2]: 94 % of control | T/C [8]: 94 % of control

OC(c1ccccc1)(c1ccccc1)c1ccc(CN2CCCCC2)cc1
T/C (endpoint: mean survival time, dose: 12.5 mg/kg/injection, schedule: Q01DX009 (ip), vehicle: other): 94 % of control | T/C (endpoint: mean survival time, dose: 25.0 mg/kg/injection, schedule: Q01DX009 (ip), vehicle: other): 92 % of control | T/C (endpoint: mean survival time, dose: 50.0 mg/kg/injection, schedule: Q01DX009 (ip), vehicle: other): 86 % of control | T/C (endpoint: mean survival time, dose: 100.0 mg/kg/injection, schedule: Q01DX009 (ip), vehicle: other): 86 % of control | T/C (endpoint: mean survival time, dose: 200.0 mg/kg/injection, schedule: Q01DX009 (ip), vehicle: other): 87 % of control

CCC/C=C/C=C/C(=O)OC1/C(=C/C(=O)OC)CC2CC(C(C)O)OC(=O)CC(O)CC3CC(OC(C)=O)C(C)(C)C(O)(CC4C/C(=C/C(=O)OC)CC(/C=C/C(C)(C)C1(O)O2)O4)O3 (stereo unspecified)
T/C (endpoint: median survival time, dose: 18.75 micrograms/kg/injection, schedule: Q01DX009 (ip), vehicle: saline + alcohol): 113 % of control and 117 % of control | T/C (endpoint: median survival time, dose: 37.5 micrograms/kg/injection, schedule: Q01DX009 (ip), vehicle: saline + alcohol): 124 % of control | T/C (endpoint: median survival time, dose: 150.0 micrograms/kg/injection, schedule: Q01DX009 (ip), vehicle: saline + alcohol): 151 % of control

C/C(C#N)=C/c1ccccc1
T/C (endpoint: mean survival time, dose: 50.0 mg/kg/injection, schedule: Q01DX009 (ip), vehicle: saline sonified): 108 % of control | T/C (endpoint: mean survival time, dose: 100.0 mg/kg/injection, schedule: Q01DX009 (ip), vehicle: saline sonified): 105 % of control | T/C [7]: 100 % of control | T/C (endpoint: mean survival time, dose: 200.0 mg/kg/injection, schedule: Q01DX009 (ip), vehicle: saline sonified): 105 % of control | T/C [9]: 105 % of control

O=P(O)(O)C1c2ccccc2-c2ccccc21
T/C [3]: 100 % of control | T/C [7]: 97 % of control | T/C [4]: 94 % of control | T/C [9]: 96 % of control | T/C [10]: 100 % of control

O=c1ccn2cnc3c(ncn3C3OC(CO)C(O)C3O)c2n1 (stereo unspecified)
T/C (endpoint: median survival time, dose: 12.5 mg/kg/injection, schedule: Q01DX005 (ip), vehicle: saline with Tween-80): 105 % of control | T/C (endpoint: median survival time, dose: 25.0 mg/kg/injection, schedule: Q01DX005 (ip), vehicle: saline with Tween-80): 98 % of control | T/C (endpoint: median survival time, dose: 50.0 mg/kg/injection, schedule: Q01DX005 (ip), vehicle: saline with Tween-80): 98 % of control | T/C (endpoint: median survival time, dose: 100.0 mg/kg/injection, schedule: Q01DX005 (ip), vehicle: saline with Tween-80): 103 % of control | T/C (endpoint: median survival time, dose: 200.0 mg/kg/injection, schedule: Q01DX005 (ip), vehicle: saline with Tween-80): 103 % of control

Cc1ncc2c(n1)NC(c1ccc(Cl)cc1Cl)NC2 (stereo unspecified)
T/C [11]: 101 % of control | T/C [12]: 105 % of control | T/C [13]: 101 % of control

Cc1cc(NCCCCCCCCNc2cc(C)nc3cc(N(C)C)ccc23)c2ccc(N(C)C)cc2n1
T/C (endpoint: median survival time, dose: 1.57 mg/kg/injection, schedule: Q01DX009 (ip), vehicle: distilled water + Tween-80 + alcohol): 108 % of control | T/C (endpoint: median survival time, dose: 3.12 mg/kg/injection, schedule: Q01DX009 (ip), vehicle: distilled water + Tween-80 + alcohol): 118 % of control | T/C (endpoint: median survival time, dose: 3.12 mg/kg/injection, schedule: Q01DX009 (ip), vehicle: distilled water + Tween-80): 115 % of control | T/C (endpoint: median survival time, dose: 6.25 mg/kg/injection, schedule: Q01DX009 (ip), vehicle: distilled water + Tween-80): 123 % of control | T/C (endpoint: median survival time, dose: 12.5 mg/kg/injection, schedule: Q01DX009 (ip), vehicle: distilled water + Tween-80): 123 % of control

O=C(CCCN1CCC(O)(c2ccc(Cl)cc2)CC1)c1ccc(N2CCC(O)CC2)cc1
T/C [14]: 104 % of control | T/C [15]: 93 % of control | T/C (endpoint: mean survival time, dose: 400.0 mg/kg/injection, schedule: Q04DX002 (ip), vehicle: saline with Tween-80): 93 % of control

O=C1NC(c2ccccc2)C2/C=C\CCCCC12 (stereo unspecified)
T/C (endpoint: mean survival time, dose: 75.0 mg/kg/injection, schedule: Q04DX002 (ip), vehicle: saline with Tween-80): 93 % of control | T/C (endpoint: mean survival time, dose: 150.0 mg/kg/injection, schedule: Q04DX002 (ip), vehicle: saline with Tween-80): 96 % of control | T/C (endpoint: mean survival time, dose: 300.0 mg/kg/injection, schedule: Q04DX002 (ip), vehicle: saline with Tween-80): 93 % of control

CC(C)(C)OC(=O)N1CCCC1C(=O)Oc1ccc([N+](=O)[O-])cc1 (stereo unspecified)
T/C [5]: 98 % of control | T/C [6]: 95 % of control | T/C [7]: 92 % of control and 93 % of control

Nc1ncnc2c1nnn2C1OC(CO)C(O)C1O (stereo unspecified)
T/C (endpoint: mean survival time, dose: 10.0 mg/kg/injection, schedule: Q01DX009 (ip), vehicle: Klucel (hydroxypropylcellulose) (HPC)): 110 % of control | T/C (endpoint: mean survival time, dose: 15.0 mg/kg/injection, schedule: Q01DX009 (ip), vehicle: Klucel (hydroxypropylcellulose) (HPC)): 107 % of control | T/C (endpoint: mean survival time, dose: 28.0 mg/kg/injection, schedule: Q01DX009 (ip), vehicle: Klucel (hydroxypropylcellulose) (HPC)): 121 % of control | T/C (endpoint: mean survival time, dose: 63.0 mg/kg/injection, schedule: Q01DX009 (ip), vehicle: Klucel (hydroxypropylcellulose) (HPC)): 115 % of control

CC1CC(=O)C=C(O)C1 (stereo unspecified)
T/C [7]: 93 % of control | T/C [9]: 93 % of control | T/C [10]: 93 % of control

CC(=O)n1cc(CS)c(=O)[nH]c1=O
T/C (endpoint: mean survival time, dose: 5.0 mg/kg/injection, schedule: Q01DX001 (ip), vehicle: saline): 105 % of control | T/C (endpoint: mean survival time, dose: 10.0 mg/kg/injection, schedule: Q01DX001 (ip), vehicle: saline): 98 % of control | T/C (endpoint: mean survival time, dose: 20.0 mg/kg/injection, schedule: Q01DX001 (ip), vehicle: saline): 105 % of control | T/C (endpoint: mean survival time, dose: 40.0 mg/kg/injection, schedule: Q01DX001 (ip), vehicle: saline): 105 % of control | T/C (endpoint: mean survival time, dose: 80.0 mg/kg/injection, schedule: Q01DX001 (ip), vehicle: saline): 105 % of control

O.O=S(=O)(O)O.[NH-]C1CCCC1[NH-].[Pt+2] (stereo unspecified)
T/C (endpoint: mean survival time, dose: 0.5 mg/kg/injection, schedule: Q01DX009 (ip), vehicle: dextrose): 116 % of control and 120 % of control | T/C (endpoint: mean survival time, dose: 0.5 mg/kg/injection, schedule: Q04DX003 (ip), vehicle: dextrose): 102 % of control and 106 % of control | T/C (endpoint: mean survival time, dose: 1.0 mg/kg/injection, schedule: Q01DX001 (ip), vehicle: dextrose): 100 % of control and 104 % of control | T/C (endpoint: mean survival time, dose: 1.0 mg/kg/injection, schedule: Q04DX003 (ip), vehicle: dextrose): 116 % of control and 112 % of control | T/C (endpoint: mean survival time, dose: 2.0 mg/kg/injection, schedule: Q01DX009 (ip), vehicle: dextrose): 160 % of control | T/C (endpoint: mean survival time, dose: 2.0 mg/kg/injection, schedule: Q04DX003 (ip), vehicle: dextrose): 119 % of control | T/C (endpoint: mean survival time, dose: 4.0 mg/kg/injection, schedule: Q01DX009 (ip), vehicle: dextrose): 108 % of control | T/C (endpoint: mean survival time, dose: 4.0 mg/kg/injection, schedule: Q04DX003 (ip), vehicle: other): 165 % of control | T/C (endpoint: mean survival time, dose: 6.0 mg/kg/injection, schedule: Q01DX001 (ip), vehicle: dextrose): 151 % of control | T/C (endpoint: mean survival time, dose: 8.0 mg/kg/injection, schedule: Q04DX003 (ip), vehicle: dextrose): 160 % of control and 188 % of control | T/C (endpoint: mean survival time, dose: 10.0 mg/kg/injection, schedule: Q01DX001 (ip), vehicle: dextrose): 160 % of control | T/C (endpoint: mean survival time, dose: 16.0 mg/kg/injection, schedule: Q04DX003 (ip), vehicle: dextrose): 102 % of control

COc1cc(C)c(NC(C)=O)c([N+](=O)[O-])c1
T/C [11]: 100 % of control | T/C [12]: 95 % of control | T/C [13]: 95 % of control

CC1NC(=O)OC1(C)c1ccccc1 (stereo unspecified)
T/C [14]: 103 % of control | T/C [15]: 98 % of control

Cc1nc2ccc(Cl)cc2n1C
T/C (endpoint: mean survival time, dose: 50.0 mg/kg/injection, schedule: Q01DX009 (ip), vehicle: saline with Tween-80): 102 % of control | T/C [3]: 102 % of control | T/C [4]: 106 % of control

C(/C=C\c1ccccc1)=C(/C=C/c1ccccc1)/C=C/c1ccccc1
T/C [2]: 89 % of control | T/C [8]: 89 % of control

O=C1C=CC(=O)N1CN1CCOCC1
T/C (endpoint: mean survival time, dose: 4.37 mg/kg/injection, schedule: Q01DX009 (ip), vehicle: saline): 103 % of control | T/C (endpoint: mean survival time, dose: 8.75 mg/kg/injection, schedule: Q01DX009 (ip), vehicle: saline): 91 % of control | T/C (endpoint: mean survival time, dose: 12.5 mg/kg/injection, schedule: Q04DX003 (ip), vehicle: saline): 95 % of control

COC1CCCCC1SCSC1CCCCC1OC (stereo unspecified)
T/C [7]: 91 % of control | T/C [9]: 87 % of control | T/C [10]: 89 % of control
